Measurements taken from patent US11524940B1, “Inhibitors of cysteine proteases and methods of use thereof” (priority 2020, dated 2022).

How the values were obtained:
[1] = molecular target: SARS-CoV2 Mpro (Severe acute respiratory syndrome coronavirus 2 (2019-nCoV) (SARS-CoV-2), UniProt P0DTD1); test: COVID-19 (SARS-CoV2) Mpro enzymatic assay; type: biochemical; conditions: 25 nM Mpro, 25 μM substrate
[2] = molecular target: 229E Mpro (Human coronavirus 229E (HCoV-229E), UniProt P0C6X1); test: 229E Mpro activity; type: biochemical; conditions: read-out: 229E Mpro EC50
Method: Compounds are assayed using standard methods to assess compound activity and IC50. […] The assay buffer contains 20 mM of Tris-HCl (pH 7.3), 100 mM of NaCl, 1 mM of EDTA, 5mM of TCEP and 0.1% BSA.

[3] = system: Human Coronavirus (HCov) 229E; test: HCoV 229E cytopathic effect (CPE) assay; type: cell-based; conditions: protection from virus-induced CPE, CellTiter Glo
Method: The antiviral activity of compounds is calculated based on the protection of the virus-induced CPE at each concentration normalized by the virus control.
Reagents and instruments used in this assay include luminescent cell viability assay kit CellTiter Glo (Promega) and Microplate Reader Synergy2 (BioTek).
Cytopathic effect (CPE) is measured by CellTiter Glo following the manufacturer's manual. The antiviral activity of compounds is calculated based on the protection of the virus-induced CPE at each concentration normalized by the virus control.

229E Mpro, sequence (P0C6X1 2966-3267 limits assumed): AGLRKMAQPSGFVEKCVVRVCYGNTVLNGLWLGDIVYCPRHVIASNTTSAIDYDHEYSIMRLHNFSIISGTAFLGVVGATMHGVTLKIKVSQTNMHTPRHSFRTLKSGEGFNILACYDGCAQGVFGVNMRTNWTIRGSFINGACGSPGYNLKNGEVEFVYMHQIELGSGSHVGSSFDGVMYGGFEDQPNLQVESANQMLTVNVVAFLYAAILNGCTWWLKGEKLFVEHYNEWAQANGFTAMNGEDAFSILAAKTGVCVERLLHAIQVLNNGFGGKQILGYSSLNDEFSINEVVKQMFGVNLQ

| Molecule | IC50 [1] [µM] | EC50 [2] [nM] | EC50 ([3]; human coronavirus 229E) [nM] | EC50 [3] [nM] |
| --- | --- | --- | --- | --- |
| N#C[C@H](C[C@@H]1CCCNC1=O)NC(=O)C1CC2(CCCCC2)CN1C(=O)c1cc2cccc(Cl)c2[nH]1 (single isomer, unassigned) [731 (Isomer 1)] | < 2 | < 2000 | < 2000 |  |
| N#C[C@H](C[C@@H]1CCNC1=O)NC(=O)[C@H](CC1CC1)NC(=O)c1cc2cc(Cl)ccc2[nH]1 [Compound 519, 5-chloro-N-[(1S)-2-[[(1S)-1-cyano-2-[(3S)-2-oxopyrrolidin-3-yl]ethyl]amino]-1-(cyclopropylmethyl)-2-oxo-ethyl]-1H-indole-2-carboxamide] |  | < 2000 | < 2000 |  |
| COc1cccc2[nH]c(C(=O)N3C[C@H]4C([C@H]3C(=O)N[C@H](C#N)C[C@@H]3CCNC3=O)C4(C)C)cc12 (stereo partly drawn) [Compound 197, (2S,5S)-N-[(1S)-1-cyano-2-[(3S)-2-oxopyrrolidin-3-yl]ethyl]-3-(4-methoxy-1H-indole-2-carbonyl)-6,6-dimethyl-3-azabicyclo[3.1.0]hexane-2-carboxamide] |  | < 2000 | < 2000 |  |
| CCCOc1cccc2[nH]c(C(=O)N[C@@H](CC3CC3)C(=O)N[C@H](C#N)C[C@@H]3CCNC3=O)cc12 [Compound 379, N-[(1S)-2-[[(1S)-1-cyano-2-[(3S)-2-oxopyrrolidin-3-yl]ethyl]amino]-1-(cyclopropylmethyl)-2-oxo-ethyl]-4-propoxy-1H-indole-2-carboxamide] |  | < 2000 | < 2000 |  |
| COc1cccc2[nH]c(C(=O)N[C@@H](CC(C)C)C(=O)N[C@@H](C[C@@H]3CCNC3=O)C(N)C#N)cc12 (stereo partly drawn) [Compound 344C, N-[(1S)-1-[[(1S)-2-amino-2-cyano-1-[[(3S)-2-oxopyrrolidin-3-yl]methyl]ethyl]carbamoyl]-3-methyl-butyl]-4-methoxy-1H-indole-2-carboxamide] |  | < 2000 | < 2000 |  |
| COc1cccc2[nH]c(C(=O)N[C@@H](CC(C)(C)C)C(=O)N[C@H](C#N)C[C@@H]3CCCNC3=O)cc12 [Compound 643, N-[(1S)-1-[[(1S)-1-cyano-2-[(3S)-2-oxo-3-piperidyl]ethyl]carbamoyl]-3,3-dimethyl-butyl]-4-methoxy-1H-indole-2-carboxamide] |  | < 2000 | < 2000 |  |
| COc1cccc2[nH]c(C(=O)N[C@@H](CC(C)C)C(=O)N[C@@H](CC3CCNC3=O)C(C#N)NCc3ccccc3)cc12 (single isomer, unassigned) [507 (Isomer 2.2)] |  | < 2000 |  | < 2000 |
| COc1cccc2[nH]c(C(=O)N[C@@H](CC(C)C)C(=O)N[C@@H](CC3CCNC3=O)C(C#N)NCc3ccccc3)cc12 (single isomer, unassigned) [507 (Isomer 1.1)] |  | < 2000 | < 2000 |  |
| N#C[C@H](C[C@@H]1CCCNC1=O)NC(=O)C1CC2(CCCCC2)CN1C(=O)c1cc2ccc(Cl)cc2[nH]1 (single isomer, unassigned) [733 (Isomer 1)] | < 2 | < 2000 | < 2000 |  |
| N#C[C@H](C[C@@H]1CCNC1=O)NC(=O)[C@H](CC1CC1)NC(=O)c1cc2cccc(Cl)c2[nH]1 [Compound 531, 7-chloro-N-[(1S)-2-[[(1S)-1-cyano-2-[(3S)-2-oxopyrrolidin-3-yl]ethyl]amino]-1-(cyclopropylmethyl)-2-oxo-ethyl]-1H-indole-2-carboxamide] |  | < 2000 | < 2000 |  |
| COc1cccc2[nH]c(C(=O)N[C@@H](CC(C)C)C(=O)N[C@H](C#N)C[C@@H]3CCNC3=O)cc12 [Compound 101, N-[(1S)-1-[[(1S)-1-cyano-2-[(3S)-2-oxopyrrolidin-3-yl]ethyl]carbamoyl]-3-methyl-butyl]-4-methoxy-1H-indole-2-carboxamide] |  | < 2000 | < 2000 |  |
| COc1cccc2[nH]c(C(=O)N[C@@H](CC3CCC3)C(=O)N[C@H](C#N)C[C@@H]3CCNC3=O)cc12 [Compound 577, N-[(1S)-2-[[(1S)-1-cyano-2-[(3S)-2-oxopyrrolidin-3-yl]ethyl]amino]-1-(cyclobutylmethyl)-2-oxo-ethyl]-4-methoxy-1H-indole-2-carboxamide] |  | < 2000 | < 2000 |  |
| CC(C)C[C@H](NC(=O)c1cc2c(OC(F)F)cccc2[nH]1)C(=O)N[C@H](C#N)C[C@@H]1CCNC1=O [Compound 509, N-[(1S)-1-[[(1S)-1-cyano-2-[(3S)-2-oxopyrrolidin-3-yl]ethyl]carbamoyl]-3-methyl-butyl]-4-(difluoromethoxy)-1H-indole-2-carboxamide] |  | < 2000 | < 2000 |  |
| COc1cccc2[nH]c(C(=O)N3CC4(CC3C(=O)N[C@H](C#N)C[C@@H]3CCCNC3=O)CC(F)(F)C4)cc12 (single isomer, unassigned) [723 (Isomer 2)] | < 2 | < 2000 | < 2000 |  |
| COc1ccc2[nH]c(C(=O)N3CC4(CCC4)CC3C(=O)N[C@H](C#N)C[C@@H]3CCNC3=O)cc2c1Cl (single isomer, unassigned) [886 (Isomer 1)] | > 30 | > 30000 |  |  |
| COc1ccc(Cl)c2[nH]c(C(=O)N3CC4(CCCCC4)CC3C(=O)N[C@H](C#N)C[C@@H]3CCNC3=O)cc12 (single isomer, unassigned) [882 (Isomer 2)] | 10 to 30 | 10000 to 30000 |  |  |
| (S)-N-((S)-1-cyano-2-((S)-2-oxopyrrolidin-3-yl)ethyl)-1-(4-methoxy-1H-indole-2-carbonyl)-4,4-dimethylpyrrolidine-2- carboxamide [Compound 395] | 2 to 10 | 10000 to 30000 |  | 2000 to 10000 |
| COCCOCCOC(=O)N[C@@H](CC1CC1)C(=O)N[C@H](C#N)C[C@@H]1CCNC1=O [Compound 671, 2-(2-methoxyethoxy)ethyl N-[(1S)-2-[[(1S)-1-cyano-2-[(3S)-2-oxopyrrolidin-3-yl]ethyl]amino]-1-(cyclopropylmethyl)-2-oxo-ethyl]carbamate] | 2 to 10 | 10000 to 30000 |  |  |
| COc1cccc2[nH]c(C(=O)N[C@@H](CC(C)C)C(=O)N[C@@H](CC3CCNC3=O)C(C#N)NCc3ccccc3)cc12 (single isomer, unassigned) [507 (Isomer 1.2)] |  | < 2000 |  | < 2000 |
| N#C[C@H](C[C@@H]1CCCNC1=O)NC(=O)C1CC2(CCCCC2)CN1C(=O)c1cc2c(Cl)cccc2[nH]1 (single isomer, unassigned) [801 (Isomer 2)] | 10 to 30 | 10000 to 30000 |  |  |
| COc1cccc2[nH]c(C(=O)N[C@@H](CC3CC3)C(=O)N[C@H](C#N)Cc3ccccn3)cc12 [Compound 439, N-[(1S)-2-[[(1S)-1-cyano-2-(2-pyridyl)ethyl]amino]-1-(cyclopropylmethyl)-2-oxo-ethyl]-4-methoxy-1H-indole-2-carboxamide] | 10 to 30 | > 30000 |  |  |
| N#C[C@H](C[C@@H]1CCCNC1=O)NC(=O)C1CC2(CCC(F)(F)CC2)CN1C(=O)c1cc2cccc(Cl)c2[nH]1 (single isomer, unassigned) [805 (Isomer 2)] | < 2 | < 2000 |  |  |
| COc1cccc2[nH]c(C(=O)N[C@@H](CC(C)C)C(=O)NC(C#N)c3cccnc3)cc12 (mixture of isomers) [Compound 433, N-[(1S)-1-[[cyano(3-pyridyl)methyl]carbamoyl]-3-methyl-butyl]-4-methoxy-1H-indole-2-carboxamide] |  | < 2000 | 2000 to 10000 |  |
